Data reported in the supplement of paper PMC8967900.

Assays:
Experiment in all cases: selective drug sensitivity score (sDSS, relative to normal bone marrow) (sDSS (score)); higher = more potent and effective on the cell line relative to normal bone marrow cells
Conditions in all cases: 72 h
KASUMI-10 = test system: KASUMI-10
KASUMI-2 = test system: KASUMI-2
697 = test system: 697
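Also: ALL cell lines in 384-well plates, five doses spanning 10,000-fold, each plate scaled between vehicle and 100 µmol/L benzalkonium chloride controls, sDSS an adapted area-under-curve metric.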

C=CC(=O)Nc1cccc(Nc2nc(Nc3ccc(N4CCN(C(C)=O)CC4)cc3OC)ncc2C(F)(F)F)c1 [Rociletinib] (top concentration 10000 nM)
selective drug sensitivity score (KASUMI-10): 6.94 | selective drug sensitivity score (KASUMI-2): -2.46 | selective drug sensitivity score 697: 3.54

CC[C@@H]1CN(C(=O)NCC(F)(F)F)C[C@@H]1c1cnc2cnc3[nH]ccc3n12 [Upadacitinib] (top concentration 10000 nM)
selective drug sensitivity score (KASUMI-10): -7.16 | selective drug sensitivity score (KASUMI-2): -6.56 | selective drug sensitivity score 697: -6.06

CC(O)(CS(=O)(=O)c1ccc(F)cc1)C(=O)Nc1ccc(C#N)c(C(F)(F)F)c1 (centres undefined) [Bicalutamide] (top concentration 10000 nM)
selective drug sensitivity score (KASUMI-10): -1.68 | selective drug sensitivity score (KASUMI-2): -1.68 | selective drug sensitivity score 697: -0.68

CC[C@H](CO)Nc1nc(NCc2ccccc2)c2ncn(C(C)C)c2n1 [Seliciclib] (top concentration 10000 nM)
selective drug sensitivity score (KASUMI-10): 0.86 | selective drug sensitivity score (KASUMI-2): -1.04 | selective drug sensitivity score 697: 1.16

Cc1cc(Nc2nc(N[C@@H](C)c3ncc(F)cn3)ncc2Cl)[nH]n1 [AZD1480] (top concentration 1000 nM)
selective drug sensitivity score (KASUMI-10): -0.48 | selective drug sensitivity score (KASUMI-2): -4.28 | selective drug sensitivity score 697: -3.78

O=C(O)c1ccc(CN2CCC(CN[C@@H]3C[C@H]3c3ccccc3)CC2)cc1 (top concentration 100000 nM)
selective drug sensitivity score (KASUMI-10): -0.62 | selective drug sensitivity score (KASUMI-2): -0.62 | selective drug sensitivity score 697: -0.42

CC(=O)O[C@@]12CO[C@@H]1C[C@H](O)[C@@]1(C)C(=O)[C@H](O)C3=C(C)[C@@H](OC(=O)[C@H](O)[C@@H](NC(=O)OC(C)(C)C)c4ccccc4)C[C@@](O)([C@@H](OC(=O)c4ccccc4)[C@H]21)C3(C)C [Docetaxel] (top concentration 1000 nM)
selective drug sensitivity score (KASUMI-10): 14.6 | selective drug sensitivity score (KASUMI-2): 16.4 | selective drug sensitivity score 697: 23.4

COc1cc([C@@H]2c3cc4c(cc3[C@@H](O[C@@H]3O[C@@H]5CO[C@@H](C)O[C@H]5[C@H](O)[C@H]3O)[C@H]3COC(=O)[C@H]23)OCO4)cc(OC)c1O [Etoposide] (top concentration 10000 nM)
selective drug sensitivity score (KASUMI-10): 13 | selective drug sensitivity score (KASUMI-2): 20.9 | selective drug sensitivity score 697: 20.6

O=c1ncn2nc(Sc3ccc(F)cc3F)ccc2c1-c1c(Cl)cccc1Cl [Neflamapimod] (top concentration 10000 nM)
selective drug sensitivity score (KASUMI-10): 0 | selective drug sensitivity score (KASUMI-2): 0 | selective drug sensitivity score 697: 2.9

Cc1c2oc3c(C)ccc(C(=O)N[C@@H]4C(=O)N[C@H](C(C)C)C(=O)N5CCC[C@H]5C(=O)N(C)CC(=O)N(C)[C@@H](C(C)C)C(=O)O[C@@H]4C)c3nc-2c(C(=O)N[C@@H]2C(=O)N[C@H](C(C)C)C(=O)N3CCC[C@H]3C(=O)N(C)CC(=O)N(C)[C@@H](C(C)C)C(=O)O[C@@H]2C)c(N)c1=O [Dactinomycin] (top concentration 1000 nM)
selective drug sensitivity score (KASUMI-10): 17.6 | selective drug sensitivity score (KASUMI-2): 15 | selective drug sensitivity score 697: 19.2

Clc1ccc(C(c2ccccc2Cl)C(Cl)Cl)cc1 (centres undefined) [Mitotane] (top concentration 10000 nM)
selective drug sensitivity score (KASUMI-10): -0.08 | selective drug sensitivity score (KASUMI-2): -0.08 | selective drug sensitivity score 697: -0.08

N.N.[Cl][Pt][Cl] [Cisplatin] (top concentration 100000 nM)
selective drug sensitivity score (KASUMI-10): 12 | selective drug sensitivity score (KASUMI-2): 17.2 | selective drug sensitivity score 697: 19.7

Cc1cc2c(F)c(Oc3ncnn4cc(OC[C@@H](C)O)c(C)c34)ccc2[nH]1 [Brivanib] (top concentration 1000 nM)
selective drug sensitivity score (KASUMI-10): -0.04 | selective drug sensitivity score (KASUMI-2): -0.04 | selective drug sensitivity score 697: 0.66

CCCCNc1ncc(C(=O)NCc2ccc(-n3ccnc3)cc2)c(NC2CCC(O)CC2)n1 (centres undefined) [UNC2881] (top concentration 2500 nM)
selective drug sensitivity score (KASUMI-10): 4.9 | selective drug sensitivity score (KASUMI-2): 0 | selective drug sensitivity score 697: 1

CNC(=O)[C@@H](NC(=O)[C@H](CC(C)C)[C@H](O)C(=O)NO)C(C)(C)C [Marimastat] (top concentration 10000 nM)
selective drug sensitivity score (KASUMI-10): 0.22 | selective drug sensitivity score (KASUMI-2): -0.98 | selective drug sensitivity score 697: -0.68

O=C1NC(=O)[C@@H](c2cn3c4c(cccc24)CCC3)[C@@H]1c1c[nH]c2ccccc12 [Tivantinib] (top concentration 1000 nM)
selective drug sensitivity score (KASUMI-10): 1.98 | selective drug sensitivity score (KASUMI-2): 0.68 | selective drug sensitivity score 697: 5.18

CC1(C)CCC(CN2CCN(c3ccc(C(=O)NS(=O)(=O)c4ccc(NCC5CCOCC5)c([N+](=O)[O-])c4)c(Oc4cnc5[nH]ccc5c4)c3)CC2)=C(c2ccc(Cl)cc2)C1 [Venetoclax] (top concentration 1000 nM)
selective drug sensitivity score (KASUMI-10): 29.5 | selective drug sensitivity score (KASUMI-2): 22.9 | selective drug sensitivity score 697: 10.1

COc1cc(C)c(/C=C/C(C)=C/C=C/C(C)=C/C(=O)O)c(C)c1C [Acitretin] (top concentration 10000 nM)
selective drug sensitivity score (KASUMI-10): -1.6 | selective drug sensitivity score (KASUMI-2): -1.6 | selective drug sensitivity score 697: 0.6

CC(C)C[C@H](NC(=O)[C@@H](COC(C)(C)C)NC(=O)[C@H](Cc1ccc(O)cc1)NC(=O)[C@H](CO)NC(=O)[C@H](Cc1c[nH]c2ccccc12)NC(=O)[C@H](Cc1cnc[nH]1)NC(=O)[C@@H]1CCC(=O)N1)C(=O)N[C@@H](CCCNC(=N)N)C(=O)N1CCC[C@H]1C(=O)NNC(N)=O [Goserelin] (top concentration 10000 nM)
selective drug sensitivity score (KASUMI-10): -0.06 | selective drug sensitivity score (KASUMI-2): -0.06 | selective drug sensitivity score 697: -0.06

COc1cc(C(=O)O)ccc1NC(=O)[C@@H]1N[C@@H](CC(C)(C)C)[C@](C#N)(c2ccc(Cl)cc2F)[C@H]1c1cccc(Cl)c1F [Idasanutlin] (top concentration 10000 nM)
selective drug sensitivity score (KASUMI-10): 18.4 | selective drug sensitivity score (KASUMI-2): 18.2 | selective drug sensitivity score 697: 16.8

CC1(C)C(C(=O)Nc2ccc(S(=O)(=O)c3ccc(NC(=O)C4C(C)(C)C4(C)C)cc3)cc2)C1(C)C [BRD7116] (top concentration 10000 nM)
selective drug sensitivity score (KASUMI-10): 0.86 | selective drug sensitivity score (KASUMI-2): -0.24 | selective drug sensitivity score 697: 0.56

CCC1=C[C@@H]2CN(C1)Cc1c([nH]c3ccccc13)[C@@](C(=O)OC)(c1cc3c(cc1OC)N(C)[C@H]1[C@@](O)(C(=O)OC)[C@H](OC(C)=O)[C@]4(CC)C=CCN5CC[C@]31[C@@H]54)C2 [Vinorelbine] (top concentration 10000 nM)
selective drug sensitivity score (KASUMI-10): 15.7 | selective drug sensitivity score (KASUMI-2): 17.8 | selective drug sensitivity score 697: 25

CCN1CCN(c2ccc(Nc3cc(N(C)C(=O)Nc4c(Cl)c(OC)cc(OC)c4Cl)ncn3)cc2)CC1 [Infigratinib] (top concentration 1000 nM)
selective drug sensitivity score (KASUMI-10): 0 | selective drug sensitivity score (KASUMI-2): 0 | selective drug sensitivity score 697: 0

CC(O)c1cc(C(=O)N[C@@H](C)Cn2ccc(-c3ccc(C#N)c(Cl)c3)n2)n[nH]1 (some centres undefined) [ODM-201] (top concentration 2500 nM)
selective drug sensitivity score (KASUMI-10): -0.28 | selective drug sensitivity score (KASUMI-2): -0.28 | selective drug sensitivity score 697: 0.12

C[C@@H]1CCN(C(=O)CC#N)C[C@@H]1N(C)c1ncnc2[nH]ccc12 [Tofacitinib] (top concentration 5000 nM)
selective drug sensitivity score (KASUMI-10): -7.86 | selective drug sensitivity score (KASUMI-2): -7.86 | selective drug sensitivity score 697: -6.86

CN1C(=O)N[C@H](Cc2c[nH]c3c(Cl)cccc23)C1=O [Necrostatin_2] (top concentration 10000 nM)
selective drug sensitivity score (KASUMI-10): -0.08 | selective drug sensitivity score (KASUMI-2): -0.08 | selective drug sensitivity score 697: -0.08

C[C@H]1CN(C2COC2)CCN1c1ccc(Nc2cc(-c3ccnc(N4CCn5c(cc6c5CC(C)(C)C6)C4=O)c3CO)cn(C)c2=O)nc1 [GDC-0853] (top concentration 1000 nM)
selective drug sensitivity score (KASUMI-10): 0 | selective drug sensitivity score (KASUMI-2): 0 | selective drug sensitivity score 697: 0

O=C(O)CC1CC(c2ccccc2)=NO1 (centres undefined) [VGX-1027] (top concentration 10000 nM)
selective drug sensitivity score (KASUMI-10): -0.04 | selective drug sensitivity score (KASUMI-2): -0.04 | selective drug sensitivity score 697: -0.04

N#CC1(c2ccc(NC(=O)c3cccnc3NCc3ccncc3)cc2)CCCC1 [Apatinib] (top concentration 10000 nM)
selective drug sensitivity score (KASUMI-10): 0 | selective drug sensitivity score (KASUMI-2): 2.1 | selective drug sensitivity score 697: 0

CNC(=O)c1ccc(C)c(-n2c(C)cc(OCc3ccc(F)cc3F)c(Br)c2=O)c1 (top concentration 1000 nM)
selective drug sensitivity score (KASUMI-10): 0 | selective drug sensitivity score (KASUMI-2): 0 | selective drug sensitivity score 697: 2

CCNc1nc(Nc2cc(F)c(C(=O)N3CCOCC3)cc2OC)ncc1C(F)(F)F [GNE-7915] (top concentration 1000 nM)
selective drug sensitivity score (KASUMI-10): -0.06 | selective drug sensitivity score (KASUMI-2): -0.06 | selective drug sensitivity score 697: -0.06

COc1cc2c(NC3CCN(C(C)C)CC3)nc(C3CCCCC3)nc2cc1OCCCN1CCCC1 [UNC0638] (top concentration 10000 nM)
selective drug sensitivity score (KASUMI-10): -3.34 | selective drug sensitivity score (KASUMI-2): -4.34 | selective drug sensitivity score 697: -0.84

CCC1(c2ccc(N)cc2)CCC(=O)NC1=O (centres undefined) [Aminoglutethimide] (top concentration 10000 nM)
selective drug sensitivity score (KASUMI-10): 0 | selective drug sensitivity score (KASUMI-2): 0 | selective drug sensitivity score 697: 0

Nc1cccc2c1C(=O)N(C1CCC(=O)NC1=O)C2=O (centres undefined) [Pomalidomide] (top concentration 10000 nM)
selective drug sensitivity score (KASUMI-10): 0.24 | selective drug sensitivity score (KASUMI-2): -0.26 | selective drug sensitivity score 697: 1.74

Cc1nc2cccc(N)c2c(=O)n1C1CCC(=O)NC1=O (centres undefined) [Avadomide (CC122)] (top concentration 10000 nM)
selective drug sensitivity score (KASUMI-10): 2.3 | selective drug sensitivity score (KASUMI-2): 0 | selective drug sensitivity score 697: 2.7

O=S(=O)(c1cccc2c(O)nccc12)N1CCCNCC1 [Hydroxyfasudil] (top concentration 19000 nM)
selective drug sensitivity score (KASUMI-10): -0.82 | selective drug sensitivity score (KASUMI-2): 0.08 | selective drug sensitivity score 697: 1.18

CONC(=O)c1ccccc1Nc1cc(Nc2cc(C)nn2C(C)C)ncc1Cl (top concentration 1000 nM)
selective drug sensitivity score (KASUMI-10): -0.94 | selective drug sensitivity score (KASUMI-2): -0.94 | selective drug sensitivity score 697: -0.94

CCN(c1cc(-c2ccc(CN3CCOCC3)cc2)cc(C(=O)NCc2c(C)cc(C)[nH]c2=O)c1C)C1CCOCC1 [Tazemetostat] (top concentration 10000 nM)
selective drug sensitivity score (KASUMI-10): -0.08 | selective drug sensitivity score (KASUMI-2): -0.08 | selective drug sensitivity score 697: 0.32
